Measured values as given in ChEMBL document CHEMBL1133916, “The discovery of anthranilic acid-based MMP inhibitors. Part 2: SAR of the 5-position and P1(1) groups” (Bioorg Med Chem Lett, 2001).

Assays:
[1] = molecular target: T1, Matrix metalloproteinase-9 (Homo sapiens, UniProt P14780); experiment: In vitro ability to inhibit matrix metalloprotease-9.
[2] = molecular target: T2, Interstitial collagenase (Homo sapiens, UniProt P03956); experiment: In vitro inhibition of Matrix metalloprotease-1
T2 sequence (P03956 whole entry): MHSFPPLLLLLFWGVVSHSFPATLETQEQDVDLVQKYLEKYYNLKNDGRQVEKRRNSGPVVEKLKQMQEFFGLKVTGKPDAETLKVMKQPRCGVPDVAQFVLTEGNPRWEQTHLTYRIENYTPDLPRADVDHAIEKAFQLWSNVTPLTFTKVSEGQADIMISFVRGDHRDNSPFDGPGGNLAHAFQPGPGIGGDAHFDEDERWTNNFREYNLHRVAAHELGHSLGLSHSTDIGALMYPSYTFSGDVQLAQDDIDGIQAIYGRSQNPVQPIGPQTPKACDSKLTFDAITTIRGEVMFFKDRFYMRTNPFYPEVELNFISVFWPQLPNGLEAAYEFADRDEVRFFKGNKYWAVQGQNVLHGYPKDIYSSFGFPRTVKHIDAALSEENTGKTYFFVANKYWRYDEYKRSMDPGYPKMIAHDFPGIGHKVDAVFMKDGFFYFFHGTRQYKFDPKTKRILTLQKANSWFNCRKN

[3] = molecular target: T3, Disintegrin and metalloproteinase domain-containing protein 17 (Homo sapiens, UniProt P78536); experiment: In vitro inhibition of TNF-alpha converting enzyme (TACE)
[4] = molecular target: T4, Collagenase 3 (Homo sapiens, UniProt P45452)
[5] = organism: Bos taurus; experiment: Percent inhibition of cartilage degradation at 1 uM in a bovine articular cartilage explant assay; type: functional; conditions: Cartilage tissue
[6] = test system: Rattus norvegicus; experiment: Percent inhibition of collagen degradation at an oral dose of 50 mg/kg/bid in an in vivo rat sponge-wrapped cartilage model; type: functional
[7] = molecular target: T3, Disintegrin and metalloproteinase domain-containing protein 17; experiment: Inhibition of TNF-alpha converting enzyme (TACE) at 1 uM
[8] = molecular target: T5, Interstitial collagenase (Homo sapiens) (UniProt P03956); experiment: Inhibition of Matrix metalloprotease-1 at 1 uM
T5 sequence (whole entry): T2 sequence (P03956 whole entry)

[9] = molecular target: T5, Interstitial collagenase (Homo sapiens); experiment: Inhibition of Matrix metalloprotease-1 at 10 uM
[10] = molecular target: T4, Collagenase 3; experiment: Inhibition of matrix metalloprotease-13; conditions: concentration not given here
[11] = molecular target: T1, Matrix metalloproteinase-9; experiment: Inhibition of Matrix metalloprotease-9 at 1 uM

T1 sequence (P14780 whole entry): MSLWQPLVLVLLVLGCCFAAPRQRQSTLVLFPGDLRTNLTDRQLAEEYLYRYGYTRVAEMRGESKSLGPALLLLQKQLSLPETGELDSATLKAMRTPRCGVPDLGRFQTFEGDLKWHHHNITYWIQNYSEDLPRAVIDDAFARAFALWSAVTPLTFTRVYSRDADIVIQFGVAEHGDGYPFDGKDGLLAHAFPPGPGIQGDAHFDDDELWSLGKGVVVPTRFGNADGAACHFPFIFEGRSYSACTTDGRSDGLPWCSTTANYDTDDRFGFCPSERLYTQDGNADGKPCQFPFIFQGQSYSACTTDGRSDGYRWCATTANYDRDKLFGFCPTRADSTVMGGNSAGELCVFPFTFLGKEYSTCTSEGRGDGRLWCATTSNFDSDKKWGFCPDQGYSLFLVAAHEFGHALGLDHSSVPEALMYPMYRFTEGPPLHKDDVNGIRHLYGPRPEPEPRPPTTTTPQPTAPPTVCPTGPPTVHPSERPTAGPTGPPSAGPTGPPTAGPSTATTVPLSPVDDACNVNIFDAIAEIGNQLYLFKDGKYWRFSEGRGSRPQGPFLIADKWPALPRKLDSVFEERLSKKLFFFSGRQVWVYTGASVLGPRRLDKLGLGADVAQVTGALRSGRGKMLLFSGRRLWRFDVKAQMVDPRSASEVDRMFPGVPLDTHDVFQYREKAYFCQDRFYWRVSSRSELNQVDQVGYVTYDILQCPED
T3 sequence (P78536 whole entry, the tested form may be a part): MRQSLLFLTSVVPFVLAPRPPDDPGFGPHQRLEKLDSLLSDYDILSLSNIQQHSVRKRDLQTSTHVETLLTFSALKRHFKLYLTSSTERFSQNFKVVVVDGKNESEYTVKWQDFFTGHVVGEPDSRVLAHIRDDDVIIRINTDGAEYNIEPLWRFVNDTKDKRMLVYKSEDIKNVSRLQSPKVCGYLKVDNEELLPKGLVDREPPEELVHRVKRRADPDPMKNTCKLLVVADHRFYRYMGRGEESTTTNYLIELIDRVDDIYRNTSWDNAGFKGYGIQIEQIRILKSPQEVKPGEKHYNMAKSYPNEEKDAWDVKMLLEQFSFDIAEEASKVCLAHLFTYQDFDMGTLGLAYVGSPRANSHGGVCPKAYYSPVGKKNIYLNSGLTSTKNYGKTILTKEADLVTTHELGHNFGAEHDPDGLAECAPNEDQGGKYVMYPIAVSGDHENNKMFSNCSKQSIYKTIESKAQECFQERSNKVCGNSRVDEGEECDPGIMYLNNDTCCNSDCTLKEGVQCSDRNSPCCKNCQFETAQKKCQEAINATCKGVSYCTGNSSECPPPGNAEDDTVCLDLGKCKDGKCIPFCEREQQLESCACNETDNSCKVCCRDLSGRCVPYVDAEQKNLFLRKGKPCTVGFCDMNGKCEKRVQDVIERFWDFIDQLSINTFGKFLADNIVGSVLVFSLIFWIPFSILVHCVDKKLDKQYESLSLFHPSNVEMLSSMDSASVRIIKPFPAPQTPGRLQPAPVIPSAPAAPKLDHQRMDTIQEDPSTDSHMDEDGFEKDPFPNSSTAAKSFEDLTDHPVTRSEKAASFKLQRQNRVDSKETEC

| SMILES | IC50 [1] | IC50 [2] | IC50 [3] | IC50 [4] | other results |
| --- | --- | --- | --- | --- | --- |
| COc1ccc(S(=O)(=O)N(Cc2cccnc2)c2c(C)cc(-c3cccc(C(F)(F)F)c3)cc2C(=O)NO)cc1 | 1 nM | – | – | – | – |
| COc1ccc(S(=O)(=O)N(Cc2cccnc2)c2c(C)cc(-c3ccc4ccccc4c3)cc2C(=O)NO)cc1 | 2 nM | 745 nM | 194 nM | 1 nM | inhibition at 1 µM [5]: 83% |
| COc1ccc(S(=O)(=O)N(Cc2cccnc2)c2c(C(=O)NO)cc(C)cc2-c2ccccc2)cc1 | 7 nM | 103 nM | 133 nM | 3 nM | – |
| COc1ccc(S(=O)(=O)N(Cc2cccnc2)[C@@H](C(=O)NO)C(C)C)cc1 [CGS-27023A] | – | – | 231 nM | – | inhibition in vivo at 50 mg/kg [6]: 51%; inhibition at 1 µM [5]: 70% |
| COc1ccc(S(=O)(=O)N(Cc2cccnc2)c2c(C)cc(C)cc2C(=O)NO)cc1 | – | – | 70 nM | – | – |
| Cc1cc(C)c(N(Cc2ccccc2)S(=O)(=O)c2ccc(Oc3ccccc3)cc2)c(C(=O)NO)c1 | 4 nM | 376 nM | – | 6 nM | inhibition [7]: 37% |
| Cc1cc(Br)cc(C(=O)NO)c1N(C)S(=O)(=O)c1ccc(-c2ccc(OCc3ccsc3)cc2)cc1 | 232 nM | 4640 nM | 56 nM | 142 nM | – |
| Cc1cc(C)c(N(C)S(=O)(=O)c2ccc(Sc3ccccc3)cc2)c(C(=O)NO)c1 | 8 nM | 1310 nM | 727 nM | 3 nM | – |
| Cc1cc(C)c(N(Cc2ccccc2)S(=O)(=O)c2ccc(OCc3ccccc3)cc2)c(C(=O)NO)c1 | – | – | – | – | inhibition [8]: 25% |
| CCN(CC)Cc1cc(C)c(N(Cc2ccccc2)S(=O)(=O)c2ccc(OC)cc2)c(C(=O)NO)c1 | – | – | – | – | inhibition [7]: 44% |
| Cc1cc(Br)cc(C(=O)NO)c1N(C)S(=O)(=O)c1ccc(-c2ccc(OCc3nccs3)cc2)cc1 | 952 nM | – | 23 nM | 661 nM | inhibition [9]: 45% |
| CN(c1ccccc1C(=O)NO)S(=O)(=O)c1ccc(Oc2ccncc2)cc1 | 153 nM | – | – | 38 nM | inhibition [8]: 48%; inhibition [7]: 22% |
| CCCCOc1ccc(S(=O)(=O)N(Cc2ccccc2)c2c(C)cc(C)cc2C(=O)NO)cc1 | – | – | – | – | inhibition [8]: 33% |
| COc1ccc(S(=O)(=O)N(Cc2cccnc2)c2c(C)cccc2C(=O)NO)cc1 | – | – | 231 nM | – | – |
| Cc1cc(Br)cc(C(=O)NO)c1N(C)S(=O)(=O)c1ccc(Oc2ccc(C(C)(C)C)cc2)cc1 | 125 nM | – | – | 44 nM | inhibition [8]: 25%; inhibition [7]: 19% |
| Cc1cc(Br)cc(C(=O)NO)c1N(C)S(=O)(=O)c1ccc(-c2ccc(OCc3ccccc3)cc2)cc1 | 189 nM | – | 57 nM | 163 nM | inhibition [9]: 57% |
| Cc1cccc(C(=O)NO)c1N(C)S(=O)(=O)c1ccc(Oc2ccncc2)cc1 | 7 nM | – | – | – | inhibition [7]: 32%; inhibition in vivo at 50 mg/kg [6]: 35%; inhibition at 1 µM [5]: 83% |
| Cc1cc(Br)cc(C(=O)NO)c1N(C)S(=O)(=O)c1ccc(-c2ccc(OCc3cccnc3)cc2)cc1 | – | – | 28 nM | – | inhibition [9]: 42%; inhibition [10]: 48%; inhibition [11]: 28% |
| Cc1cc(Br)cc(C(=O)NO)c1N(Cc1ccccc1)S(=O)(=O)c1ccc(OCc2ccccc2)cc1 | 3450 nM | – | 285 nM | – | inhibition [9]: 18% |
| COc1ccc(-c2ccc(S(=O)(=O)N(Cc3cccnc3)c3c(C)cccc3C(=O)NO)cc2)cc1 | 152 nM | 2270 nM | – | 18 nM | inhibition [7]: 4% |
| COc1ccc(S(=O)(=O)N(Cc2cccnc2)c2c(C)cc(-c3ccccc3)cc2C(=O)NO)cc1 | – | – | – | 4 nM | inhibition at 1 µM [5]: 70% |
| COc1ccc(S(=O)(=O)N(Cc2cccnc2)c2c(C(=O)NO)cc(C)cc2-c2ccco2)cc1 | 8 nM | 18 nM | – | 1 nM | – |
| COc1ccc(S(=O)(=O)N(Cc2cccnc2)c2c(C)cc(Br)cc2C(=O)NO)cc1 | – | 124 nM | 43 nM | – | – |
| COc1ccc(S(=O)(=O)N(Cc2cccnc2)c2c(C)cc(N(C)C)cc2C(=O)NO)cc1 | 2 nM | 74 nM | 633 nM | 39 nM | – |
| Cc1cccc(C(=O)NO)c1N(Cc1cccnc1)S(=O)(=O)c1ccc(-c2ccc3c(c2)OCO3)cc1 | – | – | – | – | inhibition [9]: 37%; inhibition [7]: 9%; inhibition [11]: 43% |
